One assay addresses HLA-A11 (A*1101) (Homo sapiens, UniProt P04439, A114D/D185E/E176A/F33Y/L180Q/S129P/T187R). As to the kind of experiment: biochemical. In kind it is binding.
The next assay addresses A31 (A*3101) (Homo sapiens, UniProt P04439, A270S/D185E/E176V/E277Q/F33T/G231S/G80R/H175R/I121M/I218V/I322F/K168Q/L300P/L318F/M331R/P217A/Q94H/R138Q/T323A/T345S/T97I/V358M). The assay can be described thus: biochemical. The class given is binding.
Another assay concerns the target A*3301 (Homo sapiens, UniProt P04439, A270S/D185E/E176V/E277Q/E87N/F33T/G231S/H175R/I121M/I218V/I322F/K168Q/K210R/L300P/L318F/M331R/P217A/Q86R/Q94H/R138Q/T323A/T345S/T97I/V358M/Y195H). As to the kind of experiment: biochemical. The class given is binding.
Another assay has as its target A*6801 (Homo sapiens, UniProt P04439, A269V/D185E/E176V/E277Q/E87N/F33Y/G231S/I121M/I166T/I218V/L180W/L300P/L318F/N151K/P208A/P217A/Q86R/R169H/T345S). As to the kind of experiment: biochemical. The class given is binding.
A further assay concerns the target HLA-A1 (A*0101) (Homo sapiens, UniProt P04439, A114D/A174V/A182V/D101N/D185E/E176A/E190D/L180R/Q94H/R68K/S129P/T187R/V100A/V91M/W191G). The assay can be described thus: biochemical. In kind it is binding.
The next assay has as its system A01 supertype. In kind it is binding, human.
The subject of the next assay is A03/11 supertype. The class given is binding, human.
Another assay addresses A*2601 (Homo sapiens, UniProt P04439, A114D/A173T/A270S/D101N/D185E/E277Q/E87N/F33Y/G231S/I121R/I218V/K168Q/L180W/L300P/L318F/P208A/P217A/Q86R/Q94H/R138Q/S129P/T187R/T323A/T345S/V100A/V358M). As to the kind of experiment: biochemical. In kind it is binding.
Another assay deals with A*2902 (Homo sapiens, UniProt P04439, A270S/D101N/D185E/E176V/E277Q/E87Q/F33T/G231S/H175R/I121M/I218V/I322F/K168Q/L300P/L318F/M331R/P208A/P217A/Q86L/T323A/T345S/V100A/V358M). As to the kind of experiment: biochemical. In kind it is binding.
A further assay deals with A*3002 (Homo sapiens, UniProt P04439, D101N/D140H/D185E/E176R/F33S/G80R/H175R/K168Q/Q94H/R138E/R41S/V100E). As to the kind of experiment: biochemical. In kind it is binding.
The target of a further assay is DR7 (DRB1*0701) (Homo sapiens, UniProt P01903+P01911, A100R/A102G/A103Q/D57E/D86V/E43K/F76Y/K127E/L162R/M171V/P40G/Q125H/Q99D/R33Q/R42Y/R54Q/S133A/S66F/T210M/V115G/Y107V/Y59L/Y89S). The assay can be described thus: biochemical. In kind it is binding. As to conditions: read-out: DRB1*0701.
The target in a further assay is DRB5*0101 (Homo sapiens, UniProt P01903+Q30154).
For another assay, the system named is A02 supertype. The class given is binding, human.
The next assay addresses B*0702 (B*0701) (Homo sapiens, UniProt P01889). As to the kind of experiment: biochemical. In kind it is binding.
For a further assay, the target named is B*3502 (Homo sapiens, UniProt P01889, A329T/A93T/A95T/C349S/D138N/D201E/D98Y/E176V/E187L/E204Q/E69T/I218V/K202T/L119I/L133F/Q94N/R155S/R180L/S121R/S35A/S48A/T118I/V127L/V306I/V36M/Y91F). The assay can be described thus: biochemical. The class given is binding.
For another assay, the target named is B*3503 (Homo sapiens, UniProt P01889, A329T/A93T/A95T/C349S/D201E/D98Y/E176V/E187L/E204Q/E69T/I218V/K202T/L119I/Q94N/R155S/R180L/S121R/S35A/S48A/T118I/V127L/V306I/V36M/Y140F/Y91F). As to the kind of experiment: biochemical. In kind it is binding.
For another assay, the target named is B*5401 (B54) (Homo sapiens, UniProt P01889, A329T/C349S/D138N/D201E/E176V/E187T/E204Q/E69G/I76V/K202T/L119W/R155S/R180L/S121T/S35A/S48A/V127L/V306I/V36M/Y140L). As to conditions: read-out: BINDING CAPACITY (IC50 nM) B*5401.
A further assay addresses B*3501 (Homo sapiens, UniProt P01889, A329T/A93T/A95T/C349S/D201E/D98Y/E176V/E187L/E204Q/E69T/I218V/K202T/L119I/Q94N/R155S/R180L/S121R/S35A/S48A/T118I/V127L/V306I/V36M/Y140S/Y91F). The assay can be described thus: biochemical.
Another assay has as its target DR1 (DRB1*0101) (Homo sapiens, UniProt P01903+P01911, A100R/D57E/F55L/F60I/F76Y/I96L/L162R/M171V/P40L/Q125E/R42F/V115G/Y59C). The assay can be described thus: biochemical. In kind it is binding. As to conditions: read-out: DRB1*0101.
For the next assay, the target named is DR4w4 (DRB1*0401) (Homo sapiens, UniProt P01903+P01911, A100K/A169T/F76Y/I96L/K127E/L162R/M171V/N62H/P40V/Q125Y/R42H/S133A/S149N/S66Y/V115G/V209L/W38E). As to the kind of experiment: biochemical. In kind it is binding. As to conditions: read-out: Binding affinity DRB1 *0401.
In another assay the target is DRB1*0802 (Homo sapiens, UniProt P01903+P01911, A100R/A103L/A169T/F76Y/H45Y/I96F/K41T/L162R/M171V/P40S/Q125H/Q178H/Q39Y/Q99D/R218S/R42G/S66Y/V115G/W38E). The assay can be described thus: biochemical. As to conditions: read-out: DRB1*0802. The class given is binding.
The target of the next assay is DRB1*0901 (Homo sapiens, UniProt P01903+P01911, A100R/A103E/D57H/D86V/F55Y/F60I/F76Y/I96F/K127E/L162R/M171V/P40D/Q125H/Q99R/R33Q/R42F/S133A/S66N/T210M/V115G/W38K/Y107V/Y59G/Y89S). As to the kind of experiment: biochemical. The class given is binding. As to conditions: read-out: DRB1*0901.
In a further assay the target is DRB1*1302 (Homo sapiens, UniProt P01903+P01911, A100E/A169T/K41T/L162R/M171V/P40S/Q125H/Q178H/Q39Y/Q99D/R42S/S66N/T262R/V115G/W38E/Y61H). As to the kind of experiment: biochemical. As to conditions: read-out: DRB1*1302. The class given is binding.
In the next assay the target is DRB1*1501 (Homo sapiens, UniProt P01903+P01911). As to the kind of experiment: biochemical. The class given is binding. As to conditions: read-out: Binding affinity DRB1 *1501.
For the next assay, the target named is DRB3*0101 (Homo sapiens, UniProt P01903+P79483). The assay can be described thus: biochemical. In kind it is binding. As to conditions: read-out: DRB3*0101.
The next assay concerns the target DRB4*0101 (Homo sapiens, UniProt P01903+P13762, G164S). The assay can be described thus: biochemical. The class given is binding. As to conditions: read-out: Binding affinity DRB4 *0101.
For a further assay, the target named is B*0801 (Homo sapiens, UniProt P01889, A93T/A95T/D138N/E176V/E187T/K202T/Q94N/R180D/S35A/V36M/Y33D/Y91F). As to conditions: read-out: IC50 for B*0801.
Another assay deals with DR2. As to conditions: read-out: binding affinity for DR2.
The next assay has as its system DR5. As to conditions: read-out: binding affinity for DR5.

Where two headings read alike, the source gives them in different places. Residues, ends and D or L forms follow the SMILES beside them. No end group written: not given here. A value given as a limit tells only on which side of the number the result lay.

For HIGPGRAFY [Peptide 1595.03], the IC50 against HLA-A11 (A*1101) was 691 nM; on A31 (A*3101), 1420 nM; at A*3301, 4500 nM; against A*6801, 29 nM; on HLA-A1 (A*0101), 1310 nM; on A*2601, 58 nM. In addition, the IC50 at A*2902 worked out at 157 nM; on A*3002 it was 11 nM. Moreover, the Degeneracy came out at 3 with A01 supertype and 2 with A03/11 supertype.
As for `CC(C)C[C@H](NC(=O)[C@H](Cc1c[nH]c2ccccc12)NC(=O)[C@H](CCCCN)NC(=O)CNC(=O)[C@H](CC(C)C)NC(=O)[C@H](CS)NC(=O)[C@H](Cc1c[nH]cn1)NC(=O)[C@H](CS)NC(=O)[C@@H](NC(=O)[C@H](CCCNC(=N)N)NC(=O)[C@H](CCC(=O)O)NC(=O)[C@H](CC(C)C)NC(=O)[C@H](CO)NC(=O)[C@H](Cc1c[nH]cn1)NC(=O)[C@H](C)NC(=O)[C@@H](N)CCC(N)=O)C(C)C)C(=O)NCC(=O)N[C@@H](Cc1c[nH]cn1)C(=O)N1CCC[C@H]1C(=O)N[C@@H](CC(=O)O)C(=O)N[C@@H](CCCCN)C(=O)O` [Peptide 868.01] (H-QAHSLERVCHCLGKWLGHPDK-OH), the IC50 at DR7 (DRB1*0701) is above 250000 nM; on DRB5*0101 (read-out: DRB5*0101), 2500 nM.
In the case of `CC[C@H](C)[C@H](NC(=O)[C@H](CS)NC(=O)[C@@H](NC(=O)[C@@H](N)Cc1ccc(O)cc1)[C@@H](C)O)C(=O)N[C@@H](CC(=O)O)C(=O)NCC(=O)N[C@@H](CCC(N)=O)C(=O)N[C@@H](CS)C(=O)N[C@H](C(=O)N[C@H](C(=O)O)C(C)C)[C@@H](C)O` [Peptide 1593.58] (H-YTCIDGQCTV-OH), the Degeneracy in the assay with A02 supertype worked out at 3.
In the case of HTQELFISNIV [Peptide 9013.0316], the Degeneracy with A02 supertype is given as 1.
In the case of `CC(C)C[C@H](NC(=O)[C@H](C)NC(=O)[C@@H](NC(=O)[C@H](CC(C)C)NC(=O)[C@H](C)NC(=O)[C@@H](NC(=O)[C@@H](NC(=O)[C@H](CCCNC(=N)N)NC(=O)[C@@H]1CCCN1C(=O)[C@H](C)N)[C@@H](C)O)C(C)C)[C@@H](C)O)C(=O)O` [APRTVALTAL], the IC50 against B*0702 (B*0701) is 4.2 nM; against B*3502, above 30000 nM; against B*3503 it was above 30000 nM; on B*5401 (B54) it was 17300 nM; against B*3501, above 30000 nM.
`CSCC[C@H](NC(=O)[C@H](Cc1ccccc1)NC(=O)[C@H](CCCCN)NC(=O)[C@@H](NC(=O)[C@@H](NC(=O)[C@H](CCCCN)NC(=O)[C@H](CCC(N)=O)NC(=O)[C@@H]1CCCN1C(=O)[C@H](Cc1c[nH]cn1)NC(=O)[C@@H](NC(=O)[C@H](CCC(N)=O)NC(=O)[C@H](C)NC(=O)[C@@H](N)CS)C(C)C)C(C)C)[C@@H](C)O)C(=O)N[C@@H](CC(C)C)C(=O)N[C@@H](CS)C(=O)O` [Peptide 68.0078]: the IC50 at DR1 (DRB1*0101) amounted to 10200 nM; on DR4w4 (DRB1*0401), 2570 nM; at DR7 (DRB1*0701), 32300 nM; on DRB1*0802, 8730 nM; at DRB1*0901, 34900 nM; on DRB1*1302, 2190 nM. The IC50 is 809 nM on DRB1*1501, above 13500 nM on DRB3*0101, 604 nM on DRB4*0101 and 1230 nM at DRB5*0101 (read-out: Binding affinity DRB5 *0101).
For FLKDYQLL [HIV gp 586-593 Y1>F, Q5>Y], on B*0801, the IC50 was 14 nM.
Compound AFKDLFVVY had a Degeneracy in the assay on A01 supertype of 2.
Regarding `CC[C@H](C)[C@H](NC(=O)CNC(=O)[C@@H](NC(=O)[C@H](Cc1ccccc1)NC(=O)[C@H](CCCCN)NC(=O)[C@H](CO)NC(=O)[C@H](CC(N)=O)NC(=O)[C@H](C)NC(=O)[C@H](CCCCN)NC(=O)[C@@H](NC(=O)[C@H](Cc1ccc(O)cc1)NC(=O)[C@@H](N)CCC(N)=O)[C@@H](C)CC)[C@@H](C)CC)C(=O)N[C@H](C(=O)N[C@@H](CCC(=O)O)C(=O)O)[C@@H](C)O` [TT830-843], the IC50 with DR2 and in the assay on DR5 was 10 to 100 nM in each case.
LTISYGRKK [Peptide 66.0060] displayed a Degeneracy with A03/11 supertype of 2.

These data come from patent US9340577B2, “HLA binding motifs and peptides and their uses” (priority 1992, dated 2016).
